# According to paper PMC6656724 (Communications Biology, 2019):
# Assays:
# PfKMO [1] = molecular target: T1, PfKMO (Pseudomonas fluorescens, UniProt Q84HF5, C252S/C461S); experiment: Stopped-flow reduction of flavin cofactor by NADPH; type: biochemical; conditions: for Reduction rate of flavin cofactor: PfKMO with saturating ligand, 2 mM NADPH, 25 °C, anaerobic
# T1 construct: made in house; host or cells: E. coli BL21 (DE3)
# Procedure: The reduction rate of the flavin cofactor by NADPH was measured using a stopped-flow spectrophotometer (Applied Photophysics Ltd), which was housed in an anaerobic glovebox (Belle Technology). […] The reduction of the flavin was monitored by the decrease in the absorbance of the flavin at 450 nm and transients were fitted to either double or triple exponentials.
# Supplementary Figure 13. Reduction of flavin cofactor by NADPH in the presence and absence of ligands. Anaerobic mixtures of 10 µM PfKMO with or without ligand were mixed against anaerobic 2 mM NADPH on a stopped-flow spectrophotometer at 25℃. a, 10 µM PfKMO mixed with 2 mM NADPH; b, 10 µM
# PfKMO [2] = molecular target: T1, PfKMO; experiment: Hydrogen peroxide production, o-dianisidine / horseradish peroxidase assay; type: biochemical; conditions: presence and absence of L-Kyn
# Procedure: H2O2 production rates from PfKMO inhibitor complexes were performed using a horseradish peroxidase (HRP) assay. NADPH consumption rate was measured in the presence and absence of an excess of KMO inhibitors (400 μM). For determination of H2O2 production rates, PfKMO (0.1 μM) was incubated with 100 μM NADPH, 200 μM L-KYN, 400 μM o-dianisidine and ∼5 units HRP in the presence and absence of excess KMO inhibitors. The rate of oxidation of o-dianisidine by H2O2, catalysed by HRP, was monitored at 440 nm (Δε 440 nm = 11.3 mM^−1 cm^−1). To eliminate the L-Kyn competition binding effect, the H2O2 production rates of KMO inhibitors were also measured without L-Kyn with the same method.
# [3] = tested on: HTT93Q flies (Drosophila melanogaster model of HD); experiment: Pseudopupil assay in Drosophila model of Huntington's disease; type: in vivo
# From the text: To test the therapeutic efficacy of 1, we next employed a widely-used Drosophila melanogaster model of the inherited neurodegenerative disorder Huntington’s disease (HD)[30], which features pan-neuronal expression of a mutant huntingtin exon 1 fragment (HTT93Q). We have previously shown that several KMO inhibitors, including UPF 648 and Ro 61-8048, are neuroprotective in this Drosophila model. We thus tested the ability of 1 to ameliorate loss of photoreceptor neurons in the fly eye (rhabdomeres) using the pseudopupil assay. […] Although the efficacy of 1 may not be solely due to KMO inhibition in the fly, we have previously observed similar levels of neuroprotection with other KMO inhibitors.
# Flies were kept on standard maize food at 25 °C with a 12:12 light/dark cycle. HTT93Q exon 1 expressing flies were generated by crossing female virgins carrying the UASHTT93Qexon1 transgene[30] (a gift of Larry Marsh and Leslie Thompson, University of California, Irvine) to males of elavGAL4 [c155] driver line, obtained from the Bloomington Drosophila Stock Center. For the drug feeding experiments, inhibitor 1 was dissolved in dimethylsulfoxide (DMSO) and added to maize media at the experimental concentrations. […] At day 7, rhabdomeres were scored as previously described. […] Rhabdomeres were examined using a Nikon Optiphot-2 light microscope, with ~ 80 ommatidia scored per fly.
# [4] = Plasma protein binding (equilibrium dialysis); type: in vitro ADME; conditions: female, CD1, mouse, read-out: Fraction unbound (blood)
# Procedure: for 1 minute and then centrifuged at 3000 rpm in 96-well blocks for 15 minutes (Allegra X12-R, Beckman Coulter, USA). All samples were analysed by means of UPLC/MS/MS on a Xevo TQs micro Mass Spectrometer (Waters Corporation, USA).
# The unbound fraction was determined as the ratio of the peak area in artificial CSF to that in brain, with correction for dilution factor according to equation (5)21, […]
# ((1/f ! ,!""!#$%& ) − 1) + 1/D where D = dilution factor in brain homogenate and fu,apparent is the measured free fraction of diluted brain homogenate.
# 3.9 Plasma protein binding
# In brief, a 96 well equilibrium dialysis apparatus was used to determine the free fraction in plasma for inhibitor 1 (HT Dialysis LLC, Gales Ferry, CT). Membranes (12-14 kDA cut-off) were conditioned in deionised water for 60 minutes, followed by conditioning in 80:20 deionised water:ethanol for 20 minutes, and then rinsed in isotonic buffer before use. Female CD1 mouse plasma was removed from the freezer and allowed to thaw on the day of experiment. […] All samples were analysed by UPLC-MS/MS on a Xevo TQs micro Mass Spectrometer (Waters
# Corporation, USA). The unbound fraction was determined as the ratio of the peak area in buffer to that in plasma.
# T1 sequence (Q84HF5 whole entry C252S/C461S): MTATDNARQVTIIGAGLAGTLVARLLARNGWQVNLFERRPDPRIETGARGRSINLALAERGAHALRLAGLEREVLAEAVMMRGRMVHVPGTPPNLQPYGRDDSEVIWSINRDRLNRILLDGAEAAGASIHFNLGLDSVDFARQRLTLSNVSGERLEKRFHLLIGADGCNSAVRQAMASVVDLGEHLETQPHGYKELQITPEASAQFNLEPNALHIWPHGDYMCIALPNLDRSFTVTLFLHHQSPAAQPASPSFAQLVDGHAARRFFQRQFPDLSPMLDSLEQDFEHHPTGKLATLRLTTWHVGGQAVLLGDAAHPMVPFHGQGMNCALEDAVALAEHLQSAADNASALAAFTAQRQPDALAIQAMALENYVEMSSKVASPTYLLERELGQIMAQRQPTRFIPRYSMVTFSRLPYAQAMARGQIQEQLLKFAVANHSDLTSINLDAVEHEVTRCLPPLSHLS
compound,measurement,setting,value
"Cc1cc2c(c(C)c1Cl)N(Cc1nn[nH]n1)C(=O)CO2 [1h, 6-chloro-5,7-dimethyl-4-(2H-tetrazol-5-ylmethyl)-1,4-benzoxazin-3-one]",Reduction rate of flavin cofactor,PfKMO [1],0.09 ± 0.001 s⁻¹
"Cc1cc2c(c(C)c1Cl)N(CC(=O)O)C(=O)CO2 [compound 1, (6-chloro-5,7-dimethyl-3-oxo-2,3-dihydro-4H-1,4-benzoxazin-4-yl) acetic acid]",Reduction rate of flavin cofactor,PfKMO [1],0.13 ± 0.005 s⁻¹
same,Stimulation of KMO reduction by NADPH,PfKMO [1]; rapid mixing stopped-flow assays,do not stimulate
same,H2O2 production,PfKMO [2],not detected
same,Neurodegeneration prevented,"[3]; HD flies, 100 μM, 7 days",~ 57%
same,Reduction in neuron loss (rhabdomeres),"[3]; HTT93Q flies, 10 μM or 100 μM for 7 days, vs untreated or DMSO",significant dose-dependent reduction
same,"fraction unbound at 5 h, 10 ug/mL",[4],0.04
